From patent US20130261188A1, “Ibuprofen Solid Oral Dosage Composition Comprising a Methacrylic Acid Copolymer” (TEIKOKU PHARMA USA, INC., priority 2012, published 2013)
In brackets after ≈: the same amount, converted by molar mass.

Test: Solubility of ibuprofen in simulated salivary fluid (excess ibuprofen, sonication, centrifugation, HPLC)
Format: physicochemical
Conditions: fassgf or other biorelevant, thermodynamic from solid, simulated salivary fluid (19 mM phosphate buffer, 150 mM sodium chloride, pH 6.75), sonicated approximately 1 hour, centrifuged
Method: In addition, solubility of ibuprofen was evaluated by adding an excess of ibuprofen to simulated salivary fluid and sonicating for approximately 1 hour. The solution was then centrifuged and injected onto the HPLC.

CC(C)Cc1ccc(C(C)C(=O)O)cc1 (stereo not shown) [ibuprofen, 2-(p-isobutylphenyl)propionic acid]
solubility: 1800 µg/mL (≈ 8.73 mM)
